Assay results published in patent US9057726B2, “Neuropeptide Q as modulator of GPCR GALR2 and uses thereof” (Actelion Pharmaceuticals Ltd., priority 2010, dated 2015).
No end group written: not given here.

Tests used:
GALR2 [1] = target: T1, GALR2 (Homo sapiens, UniProt O43603); test: FLIPR assay (intracellular calcium release); format: cell-based; set-up: expressed in transfected cells; host or cells: CHO-K1 (coexpressing Gα16); details: CHO-K1 cells coexpressing Gα16 and human GALR2
T1 sequence (O43603 1-387): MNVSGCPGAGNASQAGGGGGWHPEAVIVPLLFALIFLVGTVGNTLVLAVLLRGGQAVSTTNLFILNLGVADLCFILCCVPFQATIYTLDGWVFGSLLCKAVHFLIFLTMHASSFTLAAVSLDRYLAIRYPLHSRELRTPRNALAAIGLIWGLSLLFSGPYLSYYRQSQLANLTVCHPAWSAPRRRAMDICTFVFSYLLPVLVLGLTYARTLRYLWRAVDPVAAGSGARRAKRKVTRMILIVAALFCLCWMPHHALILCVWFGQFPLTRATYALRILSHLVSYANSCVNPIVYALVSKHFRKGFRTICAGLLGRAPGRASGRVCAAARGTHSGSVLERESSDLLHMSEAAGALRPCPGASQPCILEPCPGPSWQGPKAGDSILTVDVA
Procedure: CHO-K1 cells coexpressing Gα16 and the recombinant human GALR2 receptor grown to mid-log phase in culture media are detached with PBS-EDTA, centrifuged, resuspended in cell-culture medium (HAM's F12 with HEPES, 10% (v/v) Fetal Calf Serum), and dispensed at 15′000 cells per well in 384-well FLIPR plates. After overnight incubation in a humidified 37° C./5% CO2 incubator, the medium was discarded and replaced with a dye solution (DMEM w/o Phenol Red with HEPES, Fluo4-AM and Probenecid). After an incubation of 1 hour in a humidified 37° C./5% CO2 incubator, the dye solution was replaced by Assay Medium (HBSS/DMEM w/o phenol red). […] The resulting emission of fluorescence is recorded using FLIPR tetra. For antagonist testing 100 μl of the Neuropeptide Q polypeptide at its EC80 is injected on the mix of cells and candidate modulator, following an incubation of 15 min after the first injection. The resulting emission of fluorescence is recorded using FLIPR tetra. Agonist activity of the candidate modulator is expressed as a percentage of the activity of the Neuropeptide Q polypeptide at its EC100 concentration. Antagonist activity of the candidate modulator is expressed as a percentage of the inhibition of Neuropeptide Q polypeptide activity at its EC80 concentration.

stomach muscle = details: stomach explants, dose-dependent contraction; cited from earlier work
GALR2 [2] = target: T1, GALR2; details: in vitro studies; cited from earlier work

| Substance | EC50 (GALR2 [1]) [nM] | further results |
| --- | --- | --- |
| NWTPQAMLYLKGAQP | 0.3 | – |
| NWTPQAMLYLKGAQ [Neuropeptide Q, synthetic amidated Neuropeptide Q tested by Mirabeau et al] | – | EC50 (stomach muscle): 750 nM |
| NWTPQAMLYLKGPQG | 0.3 | – |
| NWTPQAMLYLKGAAG | 0.1 | – |
| galanin-(2-13)-Glu-His-(Pro)3-(Ala-Leu)2-Ala-amide [Peptide M871] | – | higher affinity for GALR2 than for GALR1 (GALR2 [2]): 32 fold |
| PWTPQAMLYLKGAQG | 0.1 | – |
